Results published in ChEMBL document CHEMBL5724914, “Linking interpersonal differences in gut microbiota composition and drug biotransformation activity” (2024).

Legend:
[1] = (§1) The drug is tested on Z-026 corresponding to metagenome with ENA study accession number: PRJEB37062 and ENA sample accession number: ERS12561825 for biotransformation under anaerobic condition. The drug concentrations were measured over 9 timepoints collected between 0 and 24 hours of incubation by liquid-chromatography-coupled mass spectrometry (LC–MS); conditions: 2 µM
[2] = (§2) The drug is tested on Z-017 corresponding to mouse gut metagenome with ENA study accession number: PRJEB37062 and ENA sample accession number: ERS12561816 for biotransformation under anaerobic condition. The drug concentrations were measured over 9 timepoints collected between 0 and 24 hours of incubation by liquid-chromatography-coupled mass spectrometry (LC–MS); conditions: 2 µM
[3] = as §1, with “Z-004” for “Z-026”, “ERS12561804” for “ERS12561825”; conditions: 2 µM
[4] = as §2, with “WLS-310” for “Z-017”, “human” for “mouse”, “ERS12561785” for “ERS12561816”; conditions: 2 µM
[5] = as §2, with “WLS-240” for “Z-017”, “human” for “mouse”, “ERS12561773” for “ERS12561816”; conditions: 2 µM
[6] = as §2, with “WLS-220” for “Z-017”, “human” for “mouse”, “ERS12561769” for “ERS12561816”; conditions: 2 µM
[7] = as §2, with “WLS-073” for “Z-017”, “human” for “mouse”, “ERS12561749” for “ERS12561816”; conditions: 2 µM
[8] = as §2, with “WLS-069” for “Z-017”, “human” for “mouse”, “ERS12561748” for “ERS12561816”; conditions: 2 µM
[9] = as §2, with “WLS-052” for “Z-017”, “human” for “mouse”, “ERS12561747” for “ERS12561816”; conditions: 2 µM
[10] = as §2, with “WLS-039” for “Z-017”, “human” for “mouse”, “ERS12561746” for “ERS12561816”; conditions: 2 µM
[11] = as §2, with “WLS-010” for “Z-017”, “human” for “mouse”, “ERS12561743” for “ERS12561816”; conditions: 2 µM
[12] = human gut metagenome, 24 h, 2 µM
[13] = human gut metagenome, 24 h, 2 µM; remark: listed apart in the source
[14] = human gut metagenome, 24 h, 2 µM; remark: listed apart in the source
[15] = human gut metagenome, 24 h, 2 µM; remark: listed apart in the source
[16] = human gut metagenome, 24 h, 2 µM; remark: listed apart in the source
[17] = human gut metagenome, 24 h, 2 µM; remark: listed apart in the source
[18] = human gut metagenome, 24 h, 2 µM; remark: listed apart in the source
[19] = human gut metagenome, 24 h, 2 µM; remark: listed apart in the source
[20] = human gut metagenome, 24 h, 2 µM; remark: listed apart in the source
Further: call rule not given here.

Row | SMILES | Bacterial Biotransformation [1] | Bacterial Biotransformation [2] | Bacterial Biotransformation [3] | Bacterial Biotransformation [4] | Bacterial Biotransformation [5] | Bacterial Biotransformation [6] | Bacterial Biotransformation [7] | Bacterial Biotransformation [8] | Bacterial Biotransformation [9] | Bacterial Biotransformation [10] | Bacterial Biotransformation [11] | Bacterial Biotransformation [12] | Bacterial Biotransformation [13] | Bacterial Biotransformation [14] | Bacterial Biotransformation [15] | Bacterial Biotransformation [16] | Bacterial Biotransformation [17] | Bacterial Biotransformation [18] | Bacterial Biotransformation [19] | Bacterial Biotransformation [20]
1 | CCC(=O)NCC[C@@H]1CCc2ccc3c(c21)CCO3 [RAMELTEON] | Compound NOT metabolized | Compound NOT metabolized | Compound metabolized | Compound metabolized | Compound metabolized | Compound metabolized | Compound NOT metabolized | Compound metabolized | Compound metabolized | Compound metabolized | Compound metabolized | Compound metabolized | Compound metabolized | Compound metabolized | Compound metabolized | Compound NOT metabolized | Compound metabolized | Compound metabolized | Compound metabolized | Compound metabolized
2 | CC(C)(Oc1ccc(CCNC(=O)c2ccc(Cl)cc2)cc1)C(=O)O [BEZAFIBRATE] | Compound NOT metabolized | Compound NOT metabolized | Compound NOT metabolized | Compound metabolized | Compound metabolized | Compound metabolized | Compound metabolized | Compound metabolized | Compound metabolized | Compound metabolized | Compound metabolized | Compound metabolized | Compound NOT metabolized | Compound metabolized | Compound metabolized | Compound NOT metabolized | Compound metabolized | Compound metabolized | Compound metabolized | Compound metabolized
3 | CCN(CC)CCNC(=O)c1cc(Cl)c(N)cc1OC [METOCLOPRAMIDE] | Compound NOT metabolized | Compound NOT metabolized | Compound NOT metabolized | Compound NOT metabolized | Compound metabolized | Compound NOT metabolized | Compound NOT metabolized | Compound NOT metabolized | Compound NOT metabolized | Compound NOT metabolized | Compound NOT metabolized | Compound NOT metabolized | Compound NOT metabolized | Compound NOT metabolized | Compound NOT metabolized | Compound NOT metabolized | Compound NOT metabolized | Compound NOT metabolized | Compound NOT metabolized | Compound NOT metabolized
4 | Cc1ccc(S(=O)(=O)NC(=O)NN2CCCCCC2)cc1 [TOLAZAMIDE] | Compound NOT metabolized | Compound NOT metabolized | Compound metabolized | Compound metabolized | Compound metabolized | Compound metabolized | Compound metabolized | Compound metabolized | Compound metabolized | Compound metabolized | Compound metabolized | Compound NOT metabolized | Compound NOT metabolized | Compound metabolized | Compound metabolized | Compound metabolized | Compound metabolized | Compound metabolized | Compound metabolized | Compound metabolized
5 | CCCC1O[C@@H]2C[C@H]3[C@@H]4CCC5=CC(=O)C=C[C@]5(C)[C@H]4[C@@H](O)C[C@]3(C)[C@]2(C(=O)CO)O1 (stereo not given in full) [BUDESONIDE] | Compound NOT metabolized | Compound metabolized | Compound NOT metabolized | Compound metabolized | Compound metabolized | Compound metabolized | Compound NOT metabolized | Compound metabolized | Compound metabolized | Compound metabolized | Compound metabolized | Compound metabolized | Compound metabolized | Compound metabolized | Compound metabolized | Compound metabolized | Compound metabolized | Compound metabolized | Compound metabolized | Compound metabolized
6 | CC(CN(C)C)CN1c2ccccc2CCc2ccccc21.O=C(O)/C=C\C(=O)O (stereo not given) [TRIMIPRAMINE MALEATE] | Compound metabolized | Compound NOT metabolized | Compound NOT metabolized | Compound metabolized | Compound metabolized | Compound metabolized | Compound NOT metabolized | Compound metabolized | Compound NOT metabolized | Compound metabolized | Compound metabolized | Compound NOT metabolized | Compound metabolized | Compound metabolized | Compound metabolized | Compound NOT metabolized | Compound metabolized | Compound metabolized | Compound NOT metabolized | Compound NOT metabolized
7 | CC(Oc1c(Cl)cccc1Cl)C1=NCCN1 (stereo not given) [LOFEXIDINE] | Compound NOT metabolized | Compound NOT metabolized | Compound NOT metabolized | Compound metabolized | Compound metabolized | Compound NOT metabolized | Compound NOT metabolized | Compound NOT metabolized | Compound NOT metabolized | Compound NOT metabolized | Compound NOT metabolized | Compound NOT metabolized | Compound NOT metabolized | Compound NOT metabolized | Compound metabolized | Compound metabolized | Compound metabolized | Compound metabolized | Compound NOT metabolized | Compound metabolized
